{"source": "patent US7897741B2", "about": "“Cell cycle phase markers” (GE Healthcare UK Limited, priority 2004, dated 2011)", "format_in_all_cases": "cell-based, human", "key": {"[1]": {"tested_on": "U2OS stable cells expressing the pCORON1002-EGFP-C1-PSLD construct", "test": "Chemical cell cycle block studies on EGFP-PSLD stable cell line (IN Cell Analyzer imaging)", "conditions": "for % G1: % of cells per field of view in G1-phase; for % G2: % of cells per field of view in G2-phase; for % S: % of cells per field of view in S-phase; for Total cells: total number of cells per field of view", "procedure": "Stable cells expressing the pCORON1002-EGFP-C1-PSLD construct, were seeded at 0.3×10^5/ml in 96-well Greiner plates using antibiotic-free medium (100 μl/well) and incubate for 16 hours.\nFor chemical block studies (Table 1), stable cells were exposed to olomoucine, roscovitine, nocodazole, mimosine, colcemid or colchicine (Sigma). Cells were fixed in 2% formalin and nuclei stained with hoechst (2 μM).\nAfter high throughput imaging and analysis on the IN Cell Analyzer system (GEHC), data for average nuclear intensity and N:C ratio (EGFP signal), nuclear size (hoescht signal) and, where appropriate, nuclear signal intensity (BrdU) were obtained for the total number of individual cells in a field of view using hoescht as a nuclear mask and the IN Cell Analyzer 3000 cell cycle phase marker algorithm (GEHC). For each well, the total number of cells per field of view were catagorised into G1-phase (predominantly nuclear EGFP distribution; high EGFP-PSLD nuclear intensity and N:C ratio), S-phase (nuclear BrdU signal >3SDs above background; EGFP-PSLD N:C ratio around 1) and G2-phase (large nuclear size; low EGFP-PSLD N:C ratio)."}, "[2]": {"tested_on": "CRM1-mediated nuclear export", "test": "Block of nuclear protein export: localization of GFP-HDHB and FLAG-HDHB in U2OS cells with LMB", "conditions": "in the presence of LMB (10 ng/ml, 3 h, with 10 μM cycloheximide); asynchronous, G1 and S phase U2OS cells", "procedure": "Cell cycle synchronization was verified by flow cytometry as described previously (Taneja et al., J. Biol. Chem., (2002) 277, 40853-40861). In experiments to block nuclear protein export, cells were cultured for 3 h in DMEM containing 10 ng/ml of leptomycin B (LMB) and 10 μM cycloheximide (Calbiochem, San Diego, Calif.) to prevent new protein synthesis. Cells plated on glass coverslips were microinjected as described (Herbig et al., 1999) except that plasmid DNA rather than protein was injected.\nFor indirect immunofluorescence staining, cells were washed three times with phosphate buffered saline (PBS), fixed with 3.7% formaldehyde in PBS for 20 min, permeabilized for 5 min in 0.2% Triton X-100, and incubated with 10% FBS in PBS for 45 min. FLAG-HDHB was detected with mouse monoclonal anti-FLAG antibody (Sigma-Aldrich), 1:100 in PBS plus 10% FBS for 2 h at room temperature. After washing, cells were incubated with Texas Red-conjugated goat anti-mouse secondary antibody (Jackson ImmunoResearch Laboratories, West Grove, Pa.) at 1:100 in PBS plus 10% FBS for 1 h at room temperature. […] The subcellular distribution of each protein was quantitatively evaluated in at least two independent experiments.\nFor GFP fluorescence, cells were washed three times with phosphate-buffered saline (PBS), fixed with 3.7% formaldehyde containing 2 μM Hoechst 33258 for 20 min and imaged and evaluated as above."}, "[3]": {"tested_on": "EGFP-PSLD stable cell lines (U2OS)", "test": "Kinetic imaging (24 hours) of EGFP-PSLD stable cell lines treated with olomoucine", "conditions": "cells arrested in G2, without passing through mitosis; kinetic imaging over 24 hours", "procedure": "Where appropriate, for high throughput imaging, kinetic imaging (24 hr) and analysis in multiwell plate format of stable cell lines flourescence microscopy was conducted using a high throughput confocal imaging system (IN Cell Analyzer 1000 or IN Cell Analyzer 3000, GE Healthcare, Amersham, UK) on cells transfected with pCORON1002-EGFP-C1-PSLD, pCORON1002-EGFP-C1-βGal-PSLD or redFP derivatives of these vectors. Images were analysed using the cell cycle phase marker algorithm (GE Health Care)."}}, "data": [{"compound": "CN[C@H]1CCc2cc(OC)c(OC)c(OC)c2-c2ccc(OC)c(=O)cc21", "note": "[Colcemid]", "values": [{"measurement": "% G1", "setting": "[1]; 0.3 μM", "result": 16, "unit": "%"}, {"measurement": "% G2", "setting": "[1]; 0.3 μM", "result": 43, "unit": "%"}, {"measurement": "% S", "setting": "[1]; 0.3 μM", "result": 41, "unit": "%"}, {"measurement": "Total cells", "setting": "[1]; 0.3 μM", "result": 490}, {"measurement": "% G1", "setting": "[1]; 1.2 μM", "result": 8, "unit": "%"}, {"measurement": "% G2", "setting": "[1]; 1.2 μM", "result": 59, "unit": "%"}, {"measurement": "% S", "setting": "[1]; 1.2 μM", "result": 32, "unit": "%"}, {"measurement": "Total cells", "setting": "[1]; 1.2 μM", "result": 450}]}, {"compound": "COc1cc2c(c(OC)c1OC)-c1ccc(OC)c(=O)cc1[C@@H](NC(C)=O)CC2", "note": "[Colchicine]", "values": [{"measurement": "% G1", "setting": "[1]; 4 μM", "result": 9, "unit": "%"}, {"measurement": "% G2", "setting": "[1]; 4 μM", "result": 55, "unit": "%"}, {"measurement": "% S", "setting": "[1]; 4 μM", "result": 36, "unit": "%"}, {"measurement": "Total cells", "setting": "[1]; 4 μM", "result": 467}, {"measurement": "% G1", "setting": "[1]; 100 μM", "result": 12, "unit": "%"}, {"measurement": "% G2", "setting": "[1]; 100 μM", "result": 57, "unit": "%"}, {"measurement": "% S", "setting": "[1]; 100 μM", "result": 32, "unit": "%"}, {"measurement": "Total cells", "setting": "[1]; 100 μM", "result": 439}]}, {"compound": "N[C@@H](Cn1ccc(=O)c(O)c1)C(=O)O", "note": "[L-mimosine]", "values": [{"measurement": "% G1", "setting": "[1]; 2 mM", "result": 6, "unit": "%"}, {"measurement": "% G2", "setting": "[1]; 2 mM", "result": 26, "unit": "%"}, {"measurement": "% S", "setting": "[1]; 2 mM", "result": 68, "unit": "%"}, {"measurement": "Total cells", "setting": "[1]; 2 mM", "result": 1710}]}, {"compound": "CCC(=C/[C@H](C)C/C=C/C(C)=C/[C@@H](C)C(=O)[C@@H](C)[C@H](O)[C@@H](C)C/C(C)=C/C(=O)O)/C=C/[C@@H]1OC(=O)C=C[C@@H]1C", "note": "[LMB, Leptomycin B]", "values": [{"measurement": "Localization of GFP-HDHB and FLAG-HDHB fusion proteins", "setting": "[2]", "result": "accumulated in the nucleus independently of the cell cycle"}]}, {"compound": "COC(=O)Nc1nc2ccc(C(=O)c3cccs3)cc2[nH]1", "note": "[Nocodazole]", "values": [{"measurement": "% G1", "setting": "[1]; 3 μM", "result": 6, "unit": "%"}, {"measurement": "% G2", "setting": "[1]; 3 μM", "result": 61, "unit": "%"}, {"measurement": "% S", "setting": "[1]; 3 μM", "result": 33, "unit": "%"}, {"measurement": "Total cells", "setting": "[1]; 3 μM", "result": 606}]}, {"compound": "Cn1cnc2c(NCc3ccccc3)nc(NCCO)nc21", "note": "[Olomoucine]", "values": [{"measurement": "% G1", "setting": "[1]; 500 μM", "result": 63, "unit": "%"}, {"measurement": "% G2", "setting": "[1]; 500 μM", "result": 4, "unit": "%"}, {"measurement": "% S", "setting": "[1]; 500 μM", "result": 33, "unit": "%"}, {"measurement": "Total cells", "setting": "[1]; 500 μM", "result": 600}, {"measurement": "Time for EGFP-PSLD signal to redistribute from the cytoplasm to the nucleus", "setting": "[3]", "result": "4 to 8", "unit": "h"}]}, {"compound": "CC[C@H](CO)Nc1nc(NCc2ccccc2)c2ncn(C(C)C)c2n1", "note": "[Roscovitin]", "values": [{"measurement": "% G1", "setting": "[1]; 100 μM", "result": 52, "unit": "%"}, {"measurement": "% G2", "setting": "[1]; 100 μM", "result": 13, "unit": "%"}, {"measurement": "% S", "setting": "[1]; 100 μM", "result": 36, "unit": "%"}, {"measurement": "Total cells", "setting": "[1]; 100 μM", "result": 693}, {"measurement": "EGFP-PSLD distribution and cell cycle arrest", "setting": "[1]; EGFP-PSLD stable cell lines, refers to Table 1", "result": "predominantly nuclear distribution of EGFP-PSLD and arrest in G1"}]}]}
